What was measured:
[1] = target: Protein Nef/Tyrosine-protein kinase HCK (Homo sapiens, UniProt P03406+P08631); assay: In Vitro Kinase Assay; conditions: 25 °C
Source text: (§1) In vitro kinase activity of Nef-Hck complex and Hck alone using Z'-lyte kinase assay system and Tyr2 peptide substrate from Invitrogen.

[2] = target: Tyrosine-protein kinase HCK (Homo sapiens, UniProt P08631); assay: In Vitro Kinase Assay; conditions: 25 °C
Source text: as §1

Chain of Protein Nef/Tyrosine-protein kinase HCK (P08631 whole entry, other chains not shown): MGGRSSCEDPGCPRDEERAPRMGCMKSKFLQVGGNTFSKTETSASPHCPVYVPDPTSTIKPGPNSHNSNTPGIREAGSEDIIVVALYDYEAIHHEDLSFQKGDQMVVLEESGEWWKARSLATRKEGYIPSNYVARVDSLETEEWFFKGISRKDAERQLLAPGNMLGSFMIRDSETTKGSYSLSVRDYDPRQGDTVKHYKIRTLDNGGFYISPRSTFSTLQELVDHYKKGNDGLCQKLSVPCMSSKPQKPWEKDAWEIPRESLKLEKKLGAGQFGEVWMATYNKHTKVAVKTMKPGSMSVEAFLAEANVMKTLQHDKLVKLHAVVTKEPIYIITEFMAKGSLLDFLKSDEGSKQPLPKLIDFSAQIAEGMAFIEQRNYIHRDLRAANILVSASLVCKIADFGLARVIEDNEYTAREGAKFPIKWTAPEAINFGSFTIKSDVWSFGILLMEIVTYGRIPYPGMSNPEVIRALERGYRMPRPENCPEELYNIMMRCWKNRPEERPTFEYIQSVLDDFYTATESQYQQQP
Chain of Tyrosine-protein kinase HCK (P08631 whole entry): as the sequence (P08631 whole entry, other chains not shown) above

SMILES: OCCCCNc1ncnc2oc(-c3ccccc3)c(-c3ccccc3)c12 [DFP-4AB]
- IC50 [1]: 16 µM
- IC50 [2]: > 30 µM

SMILES: c1ccc(-c2oc3ncnc(NCCCc4ccco4)c3c2-c2ccccc2)cc1 [DFP-4APF]
- IC50 [1]: 2 µM
- IC50 [2]: > 30 µM

SMILES: OCCCNc1ncnc2oc(-c3ccccc3)c(-c3ccccc3)c12 [DFP-4AP]
- IC50 [1]: 5.1 µM
- IC50 [2]: 12.8 µM

SMILES: Nc1ncnc2oc(-c3ccccc3)c(-c3ccccc3)c12 [DFP-4A]
- IC50 [1]: > 30 µM
- IC50 [2]: > 30 µM

From BindingDB's records for doi:10.1021/cb900195c (University of Pittsburgh, 2009)
